Data taken from patent US20160326098A1, “Pharmaceutically Active Compound for Use as Anti-inflammatory Agent” (Pax Forschung GmbH, priority 2013, published 2016).

System: nitrite/nitrate (NOx)
Assay: Nitrite/nitrate level, colitis animals, comparison with GM-20 (FIG. 35)
Assay type: in vivo, rats
Conditions: 1.11 mmol/kg body weight, vs sham control group P
Method: The levels of plasma nitrite/nitrate (NOx), stable end products of NO were measured by the Griess reaction. This assay depends on the reduction of nitrate to nitrite, which is then converted into a colored azo dye compound that is detected spectrophotometrically at 540 nm.
The above-described clinical studies were repeated with animals having colitis which was induced as described above. 20 animals (rats) were randomly divided into four groups, wherein group L served as sham-operated control, having no colitis, group M served as second control having colitis but receiving no further treatment, group N having colitis and being treated with 1.11 mmol/kg body weight of ASS and group O having colitis and being treated with 1.11 mmol/kg of the compound according to the invention. One day after the animals received the enema with TNBS (40 mg/kg i.c.), wherein the animals of group L only received the respective solvent, the animals of group N and O were treated with ASS and the compound according to the invention, respectively. The other animals only received the respective solvent again. Two days after the enema the effects of the treatment were determined by measurement of body weight, blood gas analysis and biopsy. […] Surgery was performed to allow registration of the hemodynamic parameters at 1 h intervals for 6 h (cardiac output [CO] data were measured only at the end of the experiments). […] In addition, fluorescence confocal endomicroscopy was performed to examine the microvasculature and morphologic changes of the mucosa of the distal colon, and full-thickness tissue samples and venous blood samples were taken to determine the biochemical changes in the colon and plasma.
The tests were conducted according to the above described protocol. […] Comparative compound GM-20 is described in the state of the art as being suitable for the therapeutic treatment pathologic disorders characterized by degranulation of the mast cells caused by immunogenic hyperstimulation (see U.S. Pat. No. 5,506,224) The nitrite/nitrate level was measured as described above.

- nitrite/nitrate level: increased nitrite/nitrate level
SMILES: CC(=O)Oc1ccccc1C(=O)NCCO [GM-20]
